Assay results: patent publication EP0280239A1, “1,4-Dihydropyridine derivatives, production and use thereof” (SANWA KAGAKU KENKYUSHO CO., LTD., priority 1987, dated 1988)

Assays:
Format in all cases: in vivo
[1] = tested on: spontaneously hypertensive rats; assay: Blood pressure depressing action in spontaneously hypertensive rats; settings: male spontaneously hypertensive rats, oral, 3.0 mg/kg, N=6; for systric pressure of median sacral artery, change at 1 hr (%): 1 hr after administration; for systric pressure of median sacral artery, change at 2 hr (%): 2 hr after administration; for systric pressure of median sacral artery, change at 4 hr (%): 4 hr after administration; for systric pressure of median sacral artery, change at 6 hr (%): 6 hr after administration; for systric pressure of median sacral artery, change at 24 hr (%): 24 hr after administration
Source text: Pharmacological Test Example 2 (Blood pressure depressing action)

mongrel dogs [2] = assay: Blood flow increasing action (vertebral and femoral arterial blood flow, blood pressure) in anesthetized dogs; settings: Canis lupus familiaris, iv, read-out: ED50, i.v. (amount required to increase the vertebral arterial blood flow by 50%)
mongrel dogs [3] = assay: as above; settings: 1µg/kg, i.v., 5 head
Procedure: Pharmacological Test Example 1 (Blood flow increasing action)
An experiment was carried out by anesthetizing adult made and female mongrel dogs (weight; 10 to 20kg) with Nembutal (30mg/kg, i.p.) and artificially respiring (20ml/kg/stroke, 20 strokes/min.) the animals.
Right vertebral and femoral arteries were exposed and each probe of electro-magnetic flow meter was fitted therein to measure vertebral and femoral arterial blood flows. A cannula was inserted into descending aorta from left femoral artery, in order to measure blood pressure by a pressure transducer connected to an amplifier. Each of test compounds dissolved in 50% ethanol solution (1µg/kg, i.v.) was administered from the cannula into cephlic vein.
Further, an amount of the compound required to increase the vertebral arterial blood flow by 50% was checked to obtain results shown in following Table 2, wherein the amount is given as ED₅₀ (µg/kg).

Question: For `CC1=C(C(=O)OCCN(C)Cc2ccc(Cl)cc2Cl)C(c2cccc([N+](=O)[O-])c2)C(C(=O)OCC2CC2)=C(C)N1` (centres unmarked) [Example 1, 3-Cyclopropylmethyl 5-[2-[N-(2,4-dichlorobenzyl)-N-methylamino]-ethyl]1.4-dihydro-2,6-dimethyl-4-(3-nitrophenyl)-pyridine-3,5-dicarboxylate], which “systric pressure of median sacral artery, change at 1 hr (%)” value (from here on “systric pressure … change at 1 hr (%)”) [1] is on record?
Answer: The value was -33.3±6.57%.

Question: And the “systric pressure of median sacral artery, change at 2 hr (%)” value (“systric pressure … change at 2 hr (%)” below) [1]?
Answer: Its value is -35.2±4.12%.

Question: What about the “systric pressure of median sacral artery, change at 4 hr (%)” value (shortened to “systric pressure … change at 4 hr (%)”) [1] of the same compound?
Answer: The value was -34.0±2.42%.

Question: What about the “systric pressure of median sacral artery, change at 6 hr (%)” value (“systric pressure … change at 6 hr (%)” for short) [1] of the same compound?
Answer: Its value is -32.8±2.72%.

Question: And the “systric pressure of median sacral artery, change at 24 hr (%)” value (“systric pressure … change at 24 hr (%)” below) [1]?
Answer: The value was -13.0±5.94%.

Question: And the ED50 (mongrel dogs [2])?
Answer: The ED50 was 1.1 µg/kg.

Question: What about the “Change (%) DBP (Diastolic blood pressure)” value (“Change (%) DBP” below) (mongrel dogs [3]) of the same compound?
Answer: The value was -7 ± 1%.

Question: And the “Change (%) FABF (Femoral arteial blood flow)” value (“Change (%) FABF” below) (mongrel dogs [3])?
Answer: Its value is 23 ± 7%.

Question: What about the “Change (%) VABF (Vertebral arterial blood flow)” value (“Change (%) VABF” for short) (mongrel dogs [3]) of the same compound?
Answer: The value was 90 ± 17%.

Question: With `CC1=C(C(=O)OCCN2Cc3ccc(Cl)cc3C2)C(c2cccc([N+](=O)[O-])c2)C(C(=O)OCC2CC2)=C(C)N1` (centres unmarked) [Example 2, 3-[2-(5-Chloroisoindolin-2-yl)ethyl] 5-cyclopropymethyl 1.4-dihydro-2,6-dimethyl-4-(3-nitrophenyl)-pyridine-3,5-dicarboxylate] as the compound, how does the “systric pressure … change at 1 hr (%)” value [1] read?
Answer: Its value is -3.0±1.47%.

Question: And the “systric pressure … change at 2 hr (%)” value [1]?
Answer: Its value is -9.0±2.82%.

Question: What about the “systric pressure … change at 4 hr (%)” value [1] of the same compound?
Answer: The value was -13.2±6.15%.

Question: What about the “systric pressure … change at 6 hr (%)” value [1] of the same compound?
Answer: Its value is -21.4±3.67%.

Question: What about the “systric pressure … change at 24 hr (%)” value [1] of the same compound?
Answer: The value was -14.3±4.09%.

Question: And the ED50 (mongrel dogs [2])?
Answer: The ED50 was 1.6 µg/kg.

Question: What about the “Change (%) DBP” value (mongrel dogs [3]) of the same compound?
Answer: Its value is -7 ± 2%.

Question: And the “Change (%) FABF” value (mongrel dogs [3])?
Answer: The value was 23 ± 8%.

Question: And the “Change (%) VABF” value (mongrel dogs [3])?
Answer: Its value is 40 ± 6%.

Question: `COC(=O)C1=C(C)NC(C)=C(C(=O)OCCN(C)Cc2ccccc2)C1c1cccc([N+](=O)[O-])c1` (centres unmarked) [Nicardipine, 1,4-dihydro-2,6-dimethyl-4-(3-nitrophenyl)pyridine-3,5-dicarboxylic acid 3-2-(N-benzyl-N-methylamino)ethyl 5-methyl ester, reference compound] was tested. Which “systric pressure … change at 1 hr (%)” value [1] did it give?
Answer: The value was -10.0±2.28%.

Question: What about the “systric pressure … change at 2 hr (%)” value [1] of the same compound?
Answer: The value was -5.7±1.61%.

Question: And the “systric pressure … change at 4 hr (%)” value [1]?
Answer: Its value is -3.0±2.01%.

Question: What about the “systric pressure … change at 6 hr (%)” value [1] of the same compound?
Answer: Its value is -1.0±1.50%.

Question: And the “systric pressure … change at 24 hr (%)” value [1]?
Answer: Its value is -4.2±1.88%.

Question: And the ED50 (mongrel dogs [2])?
Answer: Its ED50 is 4.2 µg/kg.

Question: And the “Change (%) DBP” value (mongrel dogs [3])?
Answer: The value was -10 ± 1%.

Question: And the “Change (%) FABF” value (mongrel dogs [3])?
Answer: The value was 14 ± 5%.

Question: And the “Change (%) VABF” value (mongrel dogs [3])?
Answer: Its value is 32 ± 7%.

Question: How did the “systric pressure … change at 1 hr (%)” value [1] turn out when `COC(=O)C1=C(C)NC(C)=C(C(=O)OC)C1c1ccccc1[N+](=O)[O-]` [Nifedipine, dimethyl ester of 1,4-dihydro-2,6-dimethyl-4-(2-nitrophenyl)pyridine-3,5-dicarboxylic acid, reference compound] was run?
Answer: Its value is -19.3±4.41%.

Question: And the “systric pressure … change at 2 hr (%)” value [1]?
Answer: Its value is -10.6±3.14%.

Question: And the “systric pressure … change at 4 hr (%)” value [1]?
Answer: The value was -4.3±2.70%.

Question: And the “systric pressure … change at 6 hr (%)” value [1]?
Answer: Its value is -0.1±1.56%.

Question: What about the “systric pressure … change at 24 hr (%)” value [1] of the same compound?
Answer: The value was -1.1±1.06%.
